Measurements: publication PMC10994559 (PLOS Neglected Tropical Diseases, 2024)
Where two headings read alike, the source gives them in different places.

What was measured:
[1] = test system: L. major axenic amastigotes; assay: L. major axenic amastigote viability, resazurin reduction; details: Leishmania major
Experimental: L. major LV561(MHOM/IL/67/LRC-L137 JERICHO II) amastigotes were passaged in Grace insect medium supplemented with NaHCO3, 0.1% amikin and 20% of FCS (pH: 5.4) and kept at 33°C.
Exponential growth phase promastigotes of L. major or L. infantum and axenic amastigotes (L. major) were harvested and seeded in 384 well plates (white, non-transparent, tissue culture treated, flat bottom; Corning) (0.5x10^5 cells per well). Compounds were pre-dispensed into the plate with an Echo 650 acoustic dispenser (Beckman Coulter). After 72h incubation, resazurin was added (1:10 v/v) from a […] stock in PBS, followed by incubation for six hours. Then, fluorescence intensity was measured using a microplate reader (Synergy H1, BioTek) with excitation filter: 550 nm and emission filter: 590 nm. Efficient compounds were selected for the next round of viability assay with 2.5 μM concentrations of the compounds. […] All experiments were performed with AmB as a positive control drug in parallel.
Axenic amastigotes, the relevant form that persists in the infected host, were generated in the lab through established procedures, employing harsh pH (pH 5) and high temperature (33°C) conditions.

L. major promastigotes = assay: L. major promastigote viability, resazurin reduction; type: cell-based, Leishmania major; details: Leishmania major; 25 µM, 72 h, vs non-treated cells; read-out: Residual viability, L.major promastigote (25 µM)
Source text: (§1) The infectivity of the parasites was boosted by passaging in Balb/c mice and culturing the infected lymph nodes after six weeks. L. infantum (MHOM / BR / 76 / M4192) parasite was passaged in the same media formulation with 0.5% urine.

E. histolytica = E. histolytica viability, ATP luminescence (Cell titer glo); type: cell-based, Entamoeba histolytica; details: Entamoeba histolytica, 48 h
Experimental: Entamoeba histolytica (strain B2-5) was passaged in TY-1 medium (Trypticase peptone BBL, Yeast extract BBL, glucose, NaCl, K2HPO4, KH2PO4, cysteine, ascorbic acid, ammonium iron citrate, adult bovine serum, Diamond tween 80, penicillin G, amikacin (pH:6.8)) and kept in 37°C incubator in completely filled tubes with closed lid.
Viability of E. histolytica was assayed via a luminescence assay based on ATP quantification in the live cells. Briefly, 2.5x10^4 cell/ml were exposed to 25 μM of compounds in 96 well plates (non-transparent, tissue culture treated, flat bottom; SPL Life Sciences) in triplicate for 48h. Plates were incubated in sealed anaerobic bags (Oxoid AGS) together with an Anaerogen compact bag (Thermo Scientific) and anaerobic indicator (Thermo Scientific) at 37°C. Then, Cell titer glo reagent (Promega) was added to the reaction (1:5) according to manufacturers’ instruction. After 15 min of orbital shaking, followed by 10 min incubation at RT, ATP-bioluminescence was quantified at RT using a Synergy H1 plate reader (Synergy H1, BioTek). Metronidazole was included as control drug in all the assays for E. histolytica. Test compounds indicating significant growth reduction in the primary screen were subjected to potency determination. These secondary screens were essentially carried out as detailed above, but with a 9 to 16-point concentration range of the test compounds spanning 0.01–100 μM.

[2] = test system: L. infantum promastigotes; assay: L. infantum promastigote viability, resazurin reduction; type: cell-based, Leishmania infantum; details: Leishmania infantum, 72 h, vs non-treated cells
Source text: as §1

T. brucei brucei BSF = assay: T. brucei BSF viability, resazurin reduction; type: cell-based, Trypanosoma brucei brucei; details: Trypanosoma brucei, 72 h, BSF, 72 h
Experimental: T. brucei brucei (strain 427 Lister) blood stream form (BSF) parasites were passaged in complete HMI-9 media supplemented with 10% FCS, Pen-Strep (0.1%) and 2-mercaptoethanol (0.014 v/v) and kept in a 37° C CO2 incubator in filter-cap flasks.
(§2) Viability of T. brucei brucei BSF and T. cruzi trypomastigotes was assayed with fluorescence resazurin reduction assay, essentially as described above. […] Next, selected compounds were tested at 2.5 μM concentration, and promising compounds subjected to 18 concentrations dose response analyses. AN3057 and AmB were used as a control drug in T. brucei and T. cruzi, respectively.

[3] = Cytotoxicity assay J774, resazurin reduction; type: cell-based, murine; details: mouse, J774 macrophage cells, cytotoxicity, 72 h
Experimental: Mammalian cell lines (J774 and HepG2) were passaged in RPMI media supplemented with MEM, Pen-Strep (1%) and 10% FCS. Cultures were kept at 37°C incubator with 5% CO2 in filter-cap flasks.
Murine macrophage cells (J774) and human hepatocyte carcinoma HepG2 cells were seeded at 0.5x10^5 cell/well in 384 well plates in triplicate, exposed to serial dilution of compounds, dispensed using an Echo 650 acoustic dispenser (Labcyte). After incubation for 72 h at 37°C, 5% CO2, cell viability was determined using fluorescence resazurin reduction assay (λEx: 550 nm; λEm: 590 nm).

[4] = test system: intracellular L. infantum amastigotes; assay: Parasite rescue assay (intramacrophage, J774 infected with L. infantum); type: cell-based, Leishmania infantum; details: Leishmania infantum, J774, rescue assay in J774, 25 µM; read-out: Residual viability, intracellular L. infantum amastigote (25 µM)
Experimental: After 24 h incubation, cells were washed five times with serum free RPMI and exposed to a serial dilution of test compounds, prepared using an acoustic dispenser (Echo 650, Labcyte), in RPMI (2% FCS). After two days, cells were washed thrice, and 20 μl of 0.05% SDS in RPMI was added upon removal of the supernatant. Upon incubation under orbital shaking for 30 seconds, cell lysis was stopped by addition of 180 μl M199 medium supplemented with 10% FCS. […] Then, fluorescence intensity of the samples was measured with a microplate reader (Synergy H1, BioTek) with λEx: 550 nm and λEm: 590 nm. Percent of viability was calculated according to cell only and media controls.
J774A.1 cells (J774) were infected with L. infantum metacyclic promastigotes. […] After controlled lysis of the infected macrophages, the released parasites were quantified using a resazurin based viability assay.

T. cruzi trypomastigotes = assay: T. cruzi viability, resazurin reduction; type: cell-based, Trypanosoma cruzi; details: Trypanosoma cruzi, 72 h, 72 h
Experimental: T. cruzi (Y strain) trypomastigotes were passaged in liver infusion broth media supplemented with tryptose, NaCl, Na2HPO4, KCl, glucose, hemin, Pen-Strep (1%), 10% FCS (pH: 7.2) and kept at 28°C.
as §2

T. brucei BSF proteome = test system: T. brucei BSF proteome; set-up: method as in PMID: 32354742; details: ref PMID: 32354742, cited from earlier work

SMILES: CC[C@@H](C)[C@H](c1nc2ccccc2n1Cc1cn(-c2c(F)c(F)c(F)c(F)c2F)nn1)N1C(=O)c2ccccc2C1=O [PHT-41]
- viability at 2.5 µM ([1]; 72 h, read-out: Residual viability, L.major amastigote (2.5 µM)): 64.8 ± 5.36%
- viability at 25 µM ([1]; 72 h, read-out: Residual viability, L.major amastigote (25 µM)): 4.6%
- EC50 ([1]; read-out: EC50 L. major axenic amastigote): 3.6 ± 2.1 µM
- viability at 25 µM (L. major promastigotes): 21.5 ± 1.47%
- viability at 2.5 µM (E. histolytica; 2.5 µM, read-out: Residual viability, E.histolytica (2.5 µM)): 110 ± 24.2%
- viability at 25 µM (E. histolytica; 25 µM, read-out: Residual viability, E.histolytica (25 µM)): 53.3 ± 1.97%
- viability at 2.5 µM ([2]; 2.5 µM, read-out: Residual viability, L. infantum promastigote (2.5 µM)): 54.6 ± 1.29%
- viability at 25 µM ([2]; 25 µM, ± SD, triplicate, read-out: Residual viability, L. infantum promastigote (25 µM)): 12.4 ± 1.22%
- viability at 2.5 µM (T. brucei brucei BSF; 2.5 µM, read-out: Residual viability, T.brucei (2.5 µM)): 57.4 ± 11%
- viability at 25 µM (T. brucei brucei BSF; 25 µM, read-out: Residual viability, T.brucei (25 µM)): 3.15 ± 3%
- viability at 72 h, 2.5 µM ([3]; 2.5 µM, read-out: Residual viability, J774 (2.5 µM)): 96.1 ± 3.84%
- viability at 72 h, 25 µM ([3]; 25 µM, read-out: Residual viability, J774 (25 µM)): 86.1 ± 5.26%
- viability at 25 µM [4]: 81.4 ± 2.86%
- viability at 2.5 µM (T. cruzi trypomastigotes; 2.5 µM, read-out: Residual viability, T.cruzi (2.5 µM)): 64.5 ± 2.58%
- viability at 25 µM (T. cruzi trypomastigotes; read-out: Residual viability, T.cruzi (25 µM), 25 µM, 72 h): 22.7 ± 0.63%

SMILES: Cc1ccc(C(=O)Nc2ccc(S(=O)(=O)O)c3cc(S(=O)(=O)O)cc(S(=O)(=O)O)c23)cc1NC(=O)c1cccc(NC(=O)Nc2cccc(C(=O)Nc3cc(C(=O)Nc4ccc(S(=O)(=O)O)c5cc(S(=O)(=O)O)cc(S(=O)(=O)O)c45)ccc3C)c2)c1 [suramin]
- suramin ratio (protein abundance) (T. brucei BSF proteome; protein 2-oxoglutarate dehydrogenase E1 component, Tb927.11.1450): 2.73
- suramin ratio (protein abundance) (T. brucei BSF proteome; protein 2-oxoglutarate dehydrogenase E1 component, Tb927.11.9980): 3.16
- suramin ratio (protein abundance) (T. brucei BSF proteome; protein ACS1, Tb927.7.6180): 0.80
- suramin ratio (protein abundance) (T. brucei BSF proteome; protein Aconitase, Tb927.10.14000): 2.76
- suramin ratio (protein abundance) (T. brucei BSF proteome; protein CIF1 (TOEFAZ1), Tb927.11.15800): 0.78
- suramin ratio (protein abundance) (T. brucei BSF proteome; protein CIF3, Tb927.10.13100): 1.00
- suramin ratio (protein abundance) (T. brucei BSF proteome; protein CIF4, Tb927.10.8240): 0.84
- suramin ratio (protein abundance) (T. brucei BSF proteome; protein F1 alpha, Tb927.7.7430, Tb927.7.7420): 1.62
- suramin ratio (protein abundance) (T. brucei BSF proteome; protein F1 beta, Tb927.3.1380): 1.57
- suramin ratio (protein abundance) (T. brucei BSF proteome; protein F1 gamma, Tb927.10.180): 1.62
- suramin ratio (protein abundance) (T. brucei BSF proteome; protein F1 p18, Tb927.5.1710): 0.87
- suramin ratio (protein abundance) (T. brucei BSF proteome; protein FPRC, Tb927.10.6360): 1.14
- suramin ratio (protein abundance) (T. brucei BSF proteome; protein Fo 8, Tb927.4.3450): 1.62
- suramin ratio (protein abundance) (T. brucei BSF proteome; protein Fo ATBTB1, Tb927.10.520): 1.20
- suramin ratio (protein abundance) (T. brucei BSF proteome; protein Fo ATBTB3, Tb927.11.6250): 1.77
- suramin ratio (protein abundance) (T. brucei BSF proteome; protein Fo ATBTB4, Tb927.10.9830): 0.88
- suramin ratio (protein abundance) (T. brucei BSF proteome; protein Fo ATBTB12, Tb927.5.3090): 1.92
- suramin ratio (protein abundance) (T. brucei BSF proteome; protein Fo OSCP, Tb927.10.8030): 1.11
- suramin ratio (protein abundance) (T. brucei BSF proteome; protein Fo d, Tb927.5.2930): 1.32
- suramin ratio (protein abundance) (T. brucei BSF proteome; protein Fo e, Tb927.11.600): 1.21
- suramin ratio (protein abundance) (T. brucei BSF proteome; protein Fo f, Tb927.3.1690): 1.06
- suramin ratio (protein abundance) (T. brucei BSF proteome; protein Fo i/j, Tb927.3.2880): 1.67
- suramin ratio (protein abundance) (T. brucei BSF proteome; protein Fo k, Tb927.7.840): 1.07
- suramin ratio (protein abundance) (T. brucei BSF proteome; protein Glutamate dehydrogenase, Tb927.9.5900): 3.30
- suramin ratio (protein abundance) (T. brucei BSF proteome; protein PIP39, Tb927.9.6090): 2.83
- suramin ratio (protein abundance) (T. brucei BSF proteome; protein PPDK, Tb927.11.6280): 2.94
- suramin ratio (protein abundance) (T. brucei BSF proteome; protein Proline dehydrogenase, Tb927.7.210): 4.55
- suramin ratio (protein abundance) (T. brucei BSF proteome; protein SAXO, Tb927.8.6240): 0.98
- suramin ratio (protein abundance) (T. brucei BSF proteome; protein Tb927.1.4280): 0.91
- suramin ratio (protein abundance) (T. brucei BSF proteome; protein isocitrate dehydrogenase, Tb927.8.3690): 1.96
- suramin ratio (protein abundance) (T. brucei BSF proteome; protein mitochondrial malate dehydrogenase, Tb927.10.2560): 1.99
- suramin ratio (protein abundance) (T. brucei BSF proteome; protein succinyl-CoA ligase beta-chain, Tb927.10.7410): 1.97
- suramin ratio (protein abundance) (T. brucei BSF proteome; protein succinyl-CoA synthetase alpha subunit, Tb927.3.2230): 1.94
